Legend:
[1] = Retention of iopamidol injected into the submucous tissue of rat large intestine, X-ray photography and CT scanning; assay type: in vivo, Wistar rats; settings: normal rats, 20 μl injected into submucous tissue of the left colon, after one hour
Procedure: Next, the retention of physiologically active substances in the submucous tissue of normal rats was analyzed by diagnostic imaging using X-ray and CT, which are routinely used clinically. Twelve-week-old male Wistar rats were anesthetized with Nembutal, and then an ultrathin endoscope for humans was inserted into the large intestines and 20 μl of iopamidol, a contrast medium, was endoscopically injected alone into the submucous tissue of the left colon using a local injection needle.
X-ray photography and CT scanning was carried out after one hour.

ribonuclease (RNase A) = molecular target: T1, ribonuclease (RNase A) (Bos taurus, UniProt P61823); assay: Stability test for GalNAc4S-6ST siRNA at 37° C., agarose gel electrophoresis; assay type: in vitro ADME
T1 construct: purchased SIGMA
T1 sequence (P61823 27-150): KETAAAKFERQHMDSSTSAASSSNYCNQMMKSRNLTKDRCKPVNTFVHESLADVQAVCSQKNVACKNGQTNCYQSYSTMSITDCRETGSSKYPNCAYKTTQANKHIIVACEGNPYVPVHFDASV
Procedure: In this Example, GalNAc4S-6ST siRNA, the same substance used in Example 5, was assessed for its stability. First, test solutions were prepared by adding 1 μg of GalNAc4S-6ST siRNA to 200 μl of sterile phosphate buffer or 0.1% atelocollagen and stirring the mixtures at 4° C. for 20 minutes. 0.1% atelocollagen was prepared by combining 1% atelocollagen (Koken) with ten volumes of sterile phosphate buffer and stirring the mixture at 4° C. for 16 hours. Then, 40 μg of a ribonuclease (RNase A; SIGMA) was added to the prepared test solutions of GalNAc4S-6ST siRNA, and the mixtures were incubated to react at 37° C. The reaction time was 5, 15, 30, 45, or 60 minutes. 500 μl of RNA iso (Takara Bio) was added to the test solutions after reaction. The mixtures were incubated on ice for five minutes, and centrifuged at 14,000 rpm for 15 minutes. The resulting supernatants were collected, and 500 μl of isopropanol and 1 μl of glycogen (Invitrogen) were added thereto. The mixtures were incubated for 15 minutes, and centrifuged at 14,000 rpm for 15 minutes. The supernatants were discarded, and the pellets were saved. 1 ml of 75% ethanol was added to the pellets, and the mixtures were centrifuged at 14,000 rpm for 15 minutes. After this step was repeated twice, the pellets were dried and dissolved in 25 μl of injection solvent (Otsuka Pharmaceutical). 10 μl each of the solutions were combined with 2 μl of Loading Dye (Invitrogen). 3.5% agarose gel was prepared using UltraPure Agarose (Invitrogen), and the samples were electrophoresed in a Mupid-2 plus (ADVANCE) at 100 V for 20 minutes. After electrophoresis, the gel was shaken for 20 minutes in a stain solution prepared by 10,000 times diluting Ethidium Bromide (Invitrogen) with 1×LoTE (composition: 3 mM Tris-HCl (pH 7.5) (Invitrogen), 0.2 mM EDTA (pH 7.5) (Sigma Aldrich Japan)). The gel was photographed with Fluourchem (Innotech) and analyzed.

[2] = test system: DSS-induced colitis model mice; assay: Disease activity index (DAI: stool consistency, fecal occult blood) in DSS colitis model mice; assay type: in vivo, C57BL/6J mice; settings: compared to the control group
Procedure: (§1) A colitis model mice was prepared by allowing C57BL/6J mice (female, six weeks old; CLEA Japan Inc.) to freely drink […] containing 3% dextran sulfate sodium (DSS; Wako Pure Chemical Industries Inc.) for five days. This DSS-induced colitis model has excellent reproducibility, and is thus used widely as a standard experimental model for inflammatory bowel diseases such as mouse ulcerative colitis and Crohn's disease (Sasaki N, J Inflamm. 2005 2: 13; as a review, Pucilowska J B et al. Am J Physiol Gastroenterol Liver Physiol. 279: G653-G659, 2000).
The same GalNAc4S-6ST siRNA (0.3 μg/head) as used in Example 5 was injected to the submucous tissue of mouse large intestine, while the mice were allowed to drink water containing 3% DSS. The control groups used were: a group injected with scramble siRNA (“BLOCK-iT Fluorescent Oligo (Invitrogen)” in Example 4) and an untreated group in which mice were allowed to drink DSS water only. The body weight and disease activity index (DAI) score (Kihara M, Gut. 2003 52: 713-9) were recorded for five days while the mice were allowed to drink water containing 3% DDS. […]
The colitis activity index (DAI) was analyzed by the same method described in Example 7.
The first day (day 0) of feeding with DSS water is defined as 1, and the stool consistency and fecal occult blood in each mouse were recorded. […]

[3] = test system: GalNAc4S-6ST gene expression; assay: Gene knockdown by siRNA administered into the submucous tissue of large intestine in DSS colitis model mice, quantitative PCR; assay type: in vivo, mouse; settings: 0.3 μg/head into submucous tissue of large intestine, day 5
Procedure: as §1
The same GalNAc4S-6ST siRNA (0.3 μg/head) as used in Example 5 was injected to the submucous tissue of mouse large intestine, while the mice were allowed to drink water containing 3% DSS. […] The body weight and disease activity index (DAI) score (Kihara M, Gut. 2003 52: 713-9) were recorded for five days while the mice were allowed to drink water containing 3% DDS. […]
1 ml of RNA iso (Takara Bio) was added to 50 mg each of excised organs (large intestine and kidney). […] The RNA concentrations of extracted samples in UV plates (Corning Costar) were determined using a plate reader (POWER Wave XS; BIO-TEK).
Next, reverse transcription reaction (cDNA synthesis) is conducted by the following procedure. […] For quantitative PCR, SYBR Premix Kit (TAKARA) and Real-time PCR thermal cycler DICE (TAKARA) were used. […]

[4] = test system: DSS-induced colitis model mice; assay: Length of the large intestine (colonic contraction) in DSS colitis model mice; assay type: in vivo, C57BL/6J mice; settings: day five, p<0.05, t test
Procedure: as §1
(§2) The same GalNAc4S-6ST siRNA (0.3 μg/head) as used in Example 5 was injected to the submucous tissue of mouse large intestine, while the mice were allowed to drink water containing 3% DSS. The control groups used were: a group injected with scramble siRNA (“BLOCK-iT Fluorescent Oligo (Invitrogen)” in Example 4) and an untreated group in which mice were allowed to drink DSS water only. The body weight and disease activity index (DAI) score (Kihara M, Gut. 2003 52: 713-9) were recorded for five days while the mice were allowed to drink water containing 3% DDS. Then, the mice were sacrificed on the fifth day.
Next, the length of the large intestine was measured after sacrificing mice on day five. […] The length of the large intestine is a crucial indicator that reflects the intestinal fibrosis.

[5] = Nucleic acid kinetics in the submucous tissue of mouse large intestine, siRNA concentration by ELISA; assay type: in vivo; settings: mice, 0.3 μg/10 μl at three sites
Procedure: Next, in order to also confirm the retention of injected siRNA in the submucous tissue of the large intestine by biochemical methods, the concentration of siRNA in the large intestine was determined by using the ELISA method for direct quantitation of siRNA according to a published report (Rosie Z et al. Analytical Biochem. 304: 19-25, 2002). The nucleotide sequences of GalNac 4S-6ST siRNA used in this Example are shown below, but the sequences are not limited to the example shown herein.
GalNAc4S-6ST siRNA (0.3 μg/10 μl) was injected at three sites to the submucous tissue of large intestine in eight-week-old female C57BL/6.1 mice by the same method described in Example 3. The mice were sacrificed 0.5, 3, 6, or 24 hours after injection to prepare histological samples of the large intestine. The siRNA concentrations were determined by the ELISA methods.
1 μg/ml siRNA before injection was used as a positive control without any additional treatment.

[6] = test system: DSS-induced colitis model mice; assay: Histology (hematoxylin-eosin) of large intestine in DSS colitis model mice; assay type: in vivo, C57BL/6J mice; settings: HE-stained sections of large intestine
Procedure: as §1, §2
Next, tissue sections were prepared from collected large intestines and stained with hematoxylin-eosin. The resulting histological images were analyzed (FIG. 10).

[7] = presence of ribonuclease (RNase A), phosphate buffer

## C[C@H](O)C(=O)Nc1c(I)c(C(=O)NC(CO)CO)c(I)c(C(=O)NC(CO)CO)c1I [iopamidol, N,N′-Bis[2-hydroxy-1-(hydroxymethyl)ethyl]-5-[(2S)-2-hydroxypropanoylamino]-2,4,6-triiodoisophthalamide]
[1]
  Retention at the injection site, CT images: retained specifically at the injection sites and did not spread to other slices
  Retention at the injection site, X-ray images: retained in the submucous tissue of the colon without intraperitoneal leakage and transfer to other sections

## GalNAc4S-6ST siRNA: siRNA of SEQ ID NOs: 1 and 2 against GalNAc4S-6ST (Gene Bank accession number NM_015892), Hokkaido System Science (chain 1 GGAGCAGAGCAAGAUGAAUACAAUCAG; chain 2 GAUUGUAUUCAUCUUGCUCUGCUCCAU; listed as RNA, further chemistry not given here)
Ribonuclease (RNase A); absence of ribonuclease, sterile phosphate buffer, after 60 minutes
  Stability (gel band): relatively stable
Ribonuclease (RNase A); [7]
  Time after which the band disappeared: 30 min
  Time point at which siRNA degradation was observed: 15 min
Ribonuclease (RNase A); siRNA embedded in 0.1% atelocollagen, ribonuclease (RNase A), after 30 minutes
  Gel band: faint but detectable
[2]
  DAI score (stool consistency and fecal occult blood): lower
[3]
  Expression of GalNAc4S-6ST in the kidney: remained unchanged
  Expression of GalNAc4S-6ST in the large intestine: significantly suppressed the increased expression
[4]
  Colonic contraction (length of the large intestine): significantly suppressed
[5]; 0.5 hour after injection
  siRNA concentration in the large intestine: retained at a very high concentration
[5]; 24 hours after injection
  siRNA concentration in the large intestine: continually remained retained
[5]; three hours after injection
  siRNA concentration in the large intestine: decreased by half
[6]
  Epithelial disruption, infiltration of inflammatory cells into lamina propria and submucosa, and thickening of muscular layer: markedly suppressed
